Patent US11236084B2, “Substituted azaindoline derivatives as NIK inhibitors” (Janssen Pharmaceutica NV, priority 2017, dated 2022)
Where two headings read alike, the source gives them in different places.

Biological target: recombinant human NF-kappaB-inducing kinase (NIK/MAP3K14) (Homo sapiens, UniProt Q99558)
Assay: Biological Assay B: inhibition of auto-phosphorylation of recombinant human NIK/MAP3K14 (AlphaScreen), performed at 2 locations
Assay type: biochemical
Conditions: averaged values
Description: Inhibition of Auto-Phosphorylation of Recombinant Human NF-kappaB-Inducing Kinase (NIK/MAP3K14) Activity (AlphaScreen®)
NIK/MAP3K14 auto-phosphorylation activity was measured using the AlphaScreen® (αscreen) format (Perkin Elmer). All compounds tested were dissolved in dimethyl sulfoxide (DMSO) and further dilutions were made in assay buffer. Final DMSO concentration was 1% (v/v) in assays. Assay buffer was 50 mM Tris pH 7.5 containing 1 mM EGTA (ethylene glycol tetraacetic acid), 1 mM DTT (dithiothreitol), 0.1 mM Na3VO4, 5 mM MgCl2, 0.01% Tween® 20. Assays were carried out in 384 well Alphaplates (Perkin Elmer). Incubations consisted of compound, 25 microM Adenosine-5′-triphosphate (ATP), and 0.2 nM NIK/MAP3K14. Incubations were initiated by addition of GST-tagged NIK/MAP3K14 enzyme, carried out for 1 h at 25° C. and terminated by addition of stop buffer containing anti-phospho-IKK Ser176/180 antibody. Protein A Acceptor and Glutathione-Donor beads were added before reading using an EnVision® Multilabel Plate Reader (Perkin Elmer). Signal obtained in the wells containing blank samples was subtracted from all other wells and IC50's were determined by fitting a sigmoidal curve to % inhibition of control versus Log10 compound concentration.
Assay B was performed at 2 different locations.
Data for the compounds of the invention in the above assays are provided in Table A (the values in Table are averaged values over all measurements on all batches of a compound; values as IC50 (nM)). (‘n.c.’ means not calculated: ‘Co.’ means compound)

[1] = location 1, AlphaScreen auto-phosphorylation, read-out: Assay B location 1 IC50
[2] = location 2, AlphaScreen auto-phosphorylation, read-out: Assay B location 2 IC50
[3] = location 1, NIK auto-phosphorylation, AlphaScreen, read-out: Assay B location 1 IC50

recombinant human NF-kappaB-inducing kinase (NIK/MAP3K14), sequence (Q99558 whole entry): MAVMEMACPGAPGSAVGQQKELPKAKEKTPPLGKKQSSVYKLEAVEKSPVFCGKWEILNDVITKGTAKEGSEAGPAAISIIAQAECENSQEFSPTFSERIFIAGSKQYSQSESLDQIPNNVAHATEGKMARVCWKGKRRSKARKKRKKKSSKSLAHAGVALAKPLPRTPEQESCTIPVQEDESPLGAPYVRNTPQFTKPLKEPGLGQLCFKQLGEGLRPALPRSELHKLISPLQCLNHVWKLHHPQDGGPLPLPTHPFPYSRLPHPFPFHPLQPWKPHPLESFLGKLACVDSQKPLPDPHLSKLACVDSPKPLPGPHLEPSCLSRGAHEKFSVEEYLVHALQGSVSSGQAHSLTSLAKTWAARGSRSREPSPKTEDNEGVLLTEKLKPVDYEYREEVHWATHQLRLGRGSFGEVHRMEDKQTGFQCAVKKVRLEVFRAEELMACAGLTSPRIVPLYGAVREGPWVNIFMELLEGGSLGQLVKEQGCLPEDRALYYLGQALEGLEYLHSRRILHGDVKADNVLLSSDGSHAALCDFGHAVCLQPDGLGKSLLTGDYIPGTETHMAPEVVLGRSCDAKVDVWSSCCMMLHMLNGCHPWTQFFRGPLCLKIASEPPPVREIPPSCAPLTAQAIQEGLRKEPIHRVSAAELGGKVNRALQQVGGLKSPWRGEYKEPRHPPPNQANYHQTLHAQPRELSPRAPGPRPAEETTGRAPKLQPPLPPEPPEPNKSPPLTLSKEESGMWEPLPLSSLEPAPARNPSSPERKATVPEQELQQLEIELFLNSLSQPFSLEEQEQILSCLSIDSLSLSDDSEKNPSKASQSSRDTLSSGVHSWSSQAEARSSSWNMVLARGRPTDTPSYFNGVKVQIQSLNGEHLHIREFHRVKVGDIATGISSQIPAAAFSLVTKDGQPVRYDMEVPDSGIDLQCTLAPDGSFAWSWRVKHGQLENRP

| IC50 [1] [nM] | IC50 [2] [nM] | IC50 [3] [nM] | Compound |
| --- | --- | --- | --- |
| 18.3 | 5.7 | – | COc1cc(N2CC3(CCOCC3)C2)c(Cl)cc1Nc1nccc(-c2cnc3c(c2)C(C)(CO)CN3)n1 (single isomer, unassigned) [Compound 3R] |
| 55 | 36.3 | – | COc1cc(N2CCOCC2)c(C#N)cc1Nc1nccc(-c2cnc3c(c2)C(C)(CO)CN3)n1 (single isomer, unassigned) [Compound 4R] |
| 19.1 | 27.7 | – | COc1cc(N2CCOCC2)c(Cl)cc1Nc1nccc(-c2cnc3c(c2)C(C)(CO)CN3)n1 (single isomer, unassigned) [Compound 6R] |
| 4 | 2.4 | – | COc1cc(N2CCOCC2)c(Cl)cc1Nc1nccc(-c2cnc3c(c2)C(C)(CO)CN3)n1 (single isomer, unassigned) [Compound 6S] |
| 70.8 | 19.1 | – | COc1cc(N2CC3(CCOCC3)C2)c(F)cc1Nc1nccc(-c2cnc3c(c2)C(C)(CO)CN3)n1 (single isomer, unassigned) [Compound 7R] |
| 7.8 | 1.6 | – | COc1cc(N2CC3(CCOCC3)C2)c(F)cc1Nc1nccc(-c2cnc3c(c2)C(C)(CO)CN3)n1 (single isomer, unassigned) [Compound 7S] |
| – | 3.2 | – | COc1cc(C(=O)N2CCCCC2)ccc1Nc1nccc(-c2cnc3c(c2)C(C)(CO)CN3)n1 (single isomer, unassigned) [Compound 156] |
| – | 63.1 | – | COc1cc(C(=O)N2CCCCC2)ccc1Nc1nccc(-c2cnc3c(c2)C(C)(CO)CN3)n1 (single isomer, unassigned) [Compound 157] |
| 102 | 42.7 | – | COc1cc(N2CCOCC2)c(F)cc1Nc1nccc(-c2cnc3c(c2)C(C)(CO)CN3)n1 (single isomer, unassigned) [Compound 253] |
| 6.5 | 3.6 | – | COc1cc(N2CCOCC2)c(F)cc1Nc1nccc(-c2cnc3c(c2)C(C)(CO)CN3)n1 (single isomer, unassigned) [Compound 254] |
| 3 | 3.4 | – | Cc1cc(N2CCOCC2)c(Cl)cc1Nc1nccc(-c2cnc3c(c2)C(C)(CO)CN3)n1 (single isomer, unassigned) [Compound 257] |
| 91.2 | 25.7 | – | Cc1cc(N2CCOCC2)c(Cl)cc1Nc1nccc(-c2cnc3c(c2)C(C)(CO)CN3)n1 (single isomer, unassigned) [Compound 258] |
| 5 | 1.9 | – | CC1(CO)CNc2ncc(-c3ccnc(Nc4cc(Cl)c(N5CCOCC5)cc4Cl)n3)cc21 (single isomer, unassigned) [Compound 266] |
| 1.4 | 0.5 | – | COc1cc(N2CCN(C)CC2)c(Cl)cc1Nc1nccc(-c2cnc3c(c2)C(C)(CO)CN3)n1 (single isomer, unassigned) [Compound 291] |
| 13.8 | 4.8 | – | COc1cc(N2CCN(C)CC2)c(Cl)cc1Nc1nccc(-c2cnc3c(c2)C(C)(CO)CN3)n1 (single isomer, unassigned) [Compound 303] |
| – | – | 14.8 | COc1cc(N2CC3(CCOCC3)C2)c(Cl)cc1Nc1ncc(Cl)c(-c2cnc3c(c2)C(C)(CO)CN3)n1 (single isomer, unassigned) [Compound 348] |
| – | – | 24 | COc1cc(C(=O)NC2CCOCC2)ccc1Nc1ncc(Cl)c(-c2cnc3c(c2)C(C)(CO)CN3)n1 (single isomer, unassigned) [Compound 351] |

Further lines, the compound ahead of its results:

| Compound | IC50 [1] [nM] | IC50 [2] [nM] | IC50 [3] [nM] |
| --- | --- | --- | --- |
| COCCN(C)c1cc(OC)c(Nc2nccc(-c3cnc4c(c3)C(C)(CO)CN4)n2)cc1Cl (single isomer, unassigned) [Compound 5R] | – | 31.6 | – |
| COCCN(C)c1cc(OC)c(Nc2nccc(-c3cnc4c(c3)C(C)(CO)CN4)n2)cc1Cl (single isomer, unassigned) [Compound 5S] | – | 1.6 | – |
| COc1ccc(C#N)cc1Nc1nccc(-c2cnc3c(c2)C(C)(CO)CN3)n1 (single isomer, unassigned) [Compound 248] | – | 1.3 | – |
| COc1ccc(C#N)cc1Nc1nccc(-c2cnc3c(c2)C(C)(CO)CN3)n1 (single isomer, unassigned) [Compound 249] | – | 17.8 | – |
| Cc1cc(N2CCOCC2)c(F)cc1Nc1nccc(-c2cnc3c(c2)C(C)(CO)CN3)n1 (single isomer, unassigned) [Compound 255] | 10.2 | 7.2 | – |
| Cc1cc(N2CCOCC2)c(F)cc1Nc1nccc(-c2cnc3c(c2)C(C)(CO)CN3)n1 (single isomer, unassigned) [Compound 256] | 155 | 155 | – |
| CC1(CO)CNc2ncc(-c3ccnc(Nc4cc(C#N)c(N5CCOCC5)cc4Cl)n3)cc21 (single isomer, unassigned) [Compound 259] | 3.6 | 3.8 | – |
| CC1(CO)CNc2ncc(-c3ccnc(Nc4cc(C#N)c(N5CCOCC5)cc4Cl)n3)cc21 (single isomer, unassigned) [Compound 260] | 117 | 70.8 | – |
| CC1(CO)CNc2ncc(-c3ccnc(Nc4cc(F)c(N5CCOCC5)cc4Cl)n3)cc21 (single isomer, unassigned) [Compound 261] | 8.3 | 7.2 | – |
| Cc1cc(N2CCOCC2)c(C#N)cc1Nc1nccc(-c2cnc3c(c2)C(C)(CO)CN3)n1 (single isomer, unassigned) [Compound 262] | 129 | 129 | – |
| CC1(CO)CNc2ncc(-c3ccnc(Nc4cc(F)c(N5CCOCC5)cc4Cl)n3)cc21 (single isomer, unassigned) [Compound 263] | 129 | 53.7 | – |
| Cc1cc(N2CCOCC2)c(C#N)cc1Nc1nccc(-c2cnc3c(c2)C(C)(CO)CN3)n1 (single isomer, unassigned) [Compound 264] | 6.6 | 6 | – |
| CC1(CO)CNc2ncc(-c3ccnc(Nc4cc(Cl)c(N5CCOCC5)cc4Cl)n3)cc21 (single isomer, unassigned) [Compound 265] | 47.9 | 35.5 | – |
| CN(C)CCOc1cc(N2CCOCC2)c(Cl)cc1Nc1nccc(-c2cnc3c(c2)C(C)(CO)CN3)n1 (single isomer, unassigned) [Compound 274] | 2690 | 1450 | – |
| CN(C)CCOc1cc(N2CCOCC2)c(F)cc1Nc1nccc(-c2cnc3c(c2)C(C)(CO)CN3)n1 (single isomer, unassigned) [Compound 286] | 7240 | 3390 | – |
| COc1cc(N2CC(OC)C2)c(F)cc1Nc1nccc(-c2cnc3c(c2)C(C)(CO)CN3)n1 (single isomer, unassigned) [Compound 288] | 112 | 57.5 | – |
| CCN1CCN(c2cc(OC)c(Nc3nccc(-c4cnc5c(c4)C(C)(CO)CN5)n3)cc2Cl)CC1 (single isomer, unassigned) [Compound 293] | 1.5 | 0.5 | – |
| CCN1CCN(c2cc(OC)c(Nc3nccc(-c4cnc5c(c4)C(C)(CO)CN5)n3)cc2Cl)CC1 (single isomer, unassigned) [Compound 295] | 12.3 | 5.1 | – |
| CN(C)CCOc1cc(N2CCOCC2)c(F)cc1Nc1nccc(-c2cnc3c(c2)C(C)(CO)CN3)n1 (single isomer, unassigned) [Compound 297] | 708 | 309 | – |
| COc1cc(N2CC(OC)C2)c(F)cc1Nc1nccc(-c2cnc3c(c2)C(C)(CO)CN3)n1 (single isomer, unassigned) [Compound 298] | 8.1 | 2.3 | – |
